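All cell lines were grown in 96-well plates and treated with compound for 48 hours. GI50 is the concentration that inhibits growth by half.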 The source made the active and inactive calls. Rule as the data show it: active = GI50 up to about 1.1 µM and inactive = higher.
What was measured:
Test in all cases: DTP human tumour cell line panel, 48 h
OVCAR-4 = test system: OVCAR-4
MDA-N = test system: MDA-N
UO-31 = test system: UO-31
SF-268 = test system: SF-268
HCC 2998 = test system: HCC 2998
SR = test system: SR
SK-MEL-28 = test system: SK-MEL-28
OVCAR-8 = test system: OVCAR-8
M14 = test system: M14
ACHN = test system: ACHN
RPMI-8226 = test system: RPMI-8226
U-251 = test system: U-251
HL-60 = test system: HL-60
786-0 = test system: 786-0
NCI-H460 = test system: NCI-H460
NCI-H522 = test system: NCI-H522
CCRF-CEM = test system: CCRF-CEM
MDA-MB-435 = test system: MDA-MB-435
T47D = test system: T47D
Hs-578T = test system: Hs-578T
DU-145 = test system: DU-145
NCI-H226 = test system: NCI-H226
UACC-62 = test system: UACC-62
KM12 = test system: KM12
UACC-257 = test system: UACC-257
LOX IMVI = test system: LOX IMVI
IGROV-1 = test system: IGROV-1
SNB-75 = test system: SNB-75
A549 = test system: A549
SF-295 = test system: SF-295
RXF 393 = test system: RXF 393
SK-MEL-2 = test system: SK-MEL-2
NCI/ADR-RES = test system: NCI/ADR-RES
SK-MEL-5 = test system: SK-MEL-5
MDA-MB-231 = test system: MDA-MB-231
EKVX = test system: EKVX
HCT-116 = test system: HCT-116
SN12C = test system: SN12C
Malme-3M = test system: Malme-3M
TK-10 = test system: TK-10
HCT-15 = test system: HCT-15
HOP-92 = test system: HOP-92
A498 = test system: A498
SK-OV-3 = test system: SK-OV-3
HT-29 = test system: HT-29
PC-3 = test system: PC-3
COLO 205 = test system: COLO 205
SNB-19 = test system: SNB-19
OVCAR-5 = test system: OVCAR-5
HOP-62 = test system: HOP-62
CAKI-1 = test system: CAKI-1
NCI-H23 = test system: NCI-H23
K562 = test system: K562
MCF7 = test system: MCF7
MOLT-4 = test system: MOLT-4

## C[C@@H](c1ccccc1)N(CC#N)[C@H]1CCC[C@]1(O)/C=C/c1ccc2c(c1)OCO2
OVCAR-4
  GI50: > 25 µM (inactive)
MDA-N
  GI50: > 25 µM (inactive)
UO-31
  GI50: > 25 µM (inactive)
SF-268
  GI50: > 25 µM (inactive)
HCC 2998
  GI50: > 25 µM (inactive)
SR
  GI50: > 25 µM (inactive)
SK-MEL-28
  GI50: > 25 µM (inactive)
OVCAR-8
  GI50: > 25 µM (inactive)
M14
  GI50: > 25 µM (inactive)
ACHN
  GI50: 4.31 µM (inactive)
RPMI-8226
  GI50: > 25 µM (inactive)
U-251
  GI50: > 25 µM (inactive)
HL-60
  GI50: > 25 µM (inactive)
786-0
  GI50: > 25 µM (inactive)
NCI-H460
  GI50: > 25 µM (inactive)
NCI-H522
  GI50: > 25 µM (inactive)
CCRF-CEM
  GI50: > 25 µM (inactive)
MDA-MB-435
  GI50: > 25 µM (inactive)
T47D
  GI50: > 25 µM (inactive)
Hs-578T
  GI50: > 25 µM (inactive)
DU-145
  GI50: > 25 µM (inactive)
NCI-H226
  GI50: > 25 µM (inactive)
UACC-62
  GI50: 3.59 µM (inactive)
KM12
  GI50: > 25 µM (inactive)
UACC-257
  GI50: > 25 µM (inactive)
LOX IMVI
  GI50: > 25 µM (inactive)
IGROV-1
  GI50: > 25 µM (inactive)
SNB-75
  GI50: > 25 µM (inactive)
A549
  GI50: > 25 µM (inactive)
SF-295
  GI50: > 25 µM (inactive)
RXF 393
  GI50: > 25 µM (inactive)
SK-MEL-2
  GI50: > 25 µM (inactive)
NCI/ADR-RES
  GI50: > 25 µM (inactive)
SK-MEL-5
  GI50: > 25 µM (inactive)
MDA-MB-231
  GI50: > 25 µM (inactive)
EKVX
  GI50: > 25 µM (inactive)
HCT-116
  GI50: > 25 µM (inactive)
SN12C
  GI50: > 25 µM (inactive)
Malme-3M
  GI50: > 25 µM (inactive)
TK-10
  GI50: > 25 µM (inactive)
HCT-15
  GI50: > 25 µM
HOP-92
  GI50: > 25 µM (inactive)
A498
  GI50: 3.48 µM (inactive)
SK-OV-3
  GI50: > 25 µM (inactive)
HT-29
  GI50: > 25 µM (inactive)
PC-3
  GI50: > 25 µM (inactive)
COLO 205
  GI50: > 25 µM (inactive)
SNB-19
  GI50: > 25 µM (inactive)
OVCAR-5
  GI50: > 25 µM (inactive)
HOP-62
  GI50: > 25 µM (inactive)
CAKI-1
  GI50: > 25 µM (inactive)
NCI-H23
  GI50: > 25 µM (inactive)
K562
  GI50: > 25 µM (inactive)
MCF7
  GI50: 5.65 µM (inactive)
MOLT-4
  GI50: > 25 µM (inactive)

Source: ChEMBL document CHEMBL1201862, “PubChem BioAssay data set” (2004)
